We go through 30 compounds from patent US20220396567A1, “SUBSTITUTED PYRIMIDINE FOR THE TREATMENT AND PROPHYLAXIS OF HEPATITIS B VIRUS INFECTION” (Hoffmann-La Roche Inc., priority 2019, published 2022).

For the assay, the system named is HBV. The assay is described as follows: Cryopreserved primary human hepatocytes (PHH) HBV infection assay, extracellular HBsAg by CLIA. In kind it is cell-based. Particulars: Hepatitis B virus, Hepatocyte, 216 h; HBV-infected cryopreserved PHH; extracellular HBsAg at 9 days post-compound treatment; 4 parameter logistic curve fit. The method, then: This assay is used to confirm the anti-HBV effect of the compounds in HBV PHH infection assay. Cryopreserved PHH (BioreclamationIVT, Lot YJM) was thawed at 37° C. and gently transferred into pre-warmed InVitroGRO HT medium (BioreclamationIVT, Cat. S03317). The mixture was centrifuged at 70 relative centrifugal force (RCF) for 3 min at RT, and the supernatant was discarded. Pre-warmed InVitroGRO CP medium (BioreclamationIVT, Cat #S03316) was added to the cell pellet to gently re-suspend cells. The cells were seeded at the density of 5.8×10^4 cells per well to collagen I coated 96-well plate (Gibco, Cat. A1142803) with the InVitroGRO CP medium. All plates were incubated at 37° C. with 5% CO2 and 85% humidity.
At 20 hrs after plating, the medium was changed to PHH culture medium (Dulbecco's Modified Eagle Medium (DMEM)/F12 (1:1) (Gibco, Cat. 11320-033), 10% fetal bovine serum (Gibco Cat. 10099141), 100 U/mL penicillin, 100 μg/mL streptomycin (Gibco, Cat. 151401-122), […] (Invitrogen Cat. PHG0311L), 20 ng/mL dexamethasone (Sigma, Cat. D4902) and 250 ng/mL human recombinant insulin (Gibco, Cat. 12585-014)). And the cells were incubated at 37° C. with 5% CO2 and 85% humidity for 4 hrs. The medium was then changed to pre-warmed PHH culture medium containing 4% polyethylene glycol (PEG) MW8000 (Sigma, Cat. P1458-50 ML) and 1% DMSO (Sigma, Cat. D2650). 5.8×10^6 genomic equivalents of HBV were added into the medium.
At 24 hrs post-infection, the cells were gently washed with PBS and refreshed with PHH culture medium supplemented with 1% DMSO, and 0.25 mg/mL Matrix gel (Corning, Cat. 356237) at 200 μL per well. All plates were immediately placed in at 37° C. CO2 incubator.
24 hrs later, serial dilutions of compounds made with DMSO were further diluted with the same culture medium (PHH culture medium supplemented with 1% DMSO and 0.25 mg/mL Matrix gel as described above) before they were added to the cells to reach desired final compound concentrations and 1% DMSO concentration. The medium containing the compounds were refreshed every three days.
At 9 days post-compound treatment, extracellular HBsAg level were measured with Chemiluminescence Immuno Assay (CLIA) kit (Autobio, HBsAg Quantitative CLIA).
HBsAg IC50 was derived from the dose-response curve using 4 parameter logistic curve fit method. The compounds of formula (I) have HBsAg IC50<20 μM, particularly <1 μM.
A word on the IC50: it is the midpoint of a concentration-inhibition curve. The low end stands for greater potency in that assay, the high end for weaker potency in that assay. With `CC(Nc1nc(N)nc(-c2ccco2)c1C#N)c1ccccc1` (stereo not drawn) [Example 1, 2-amino-4-(2-furyl)-6-(1-phenylethylamino)pyrimidine-5-carbonitrile], inhibition was half-maximal at 5.93 µM (IC50).

The compound `CC(C)Oc1ccc(CNc2nc(N)nc(-c3ccco3)c2C#N)cc1Br` [Example 2, 2-amino-4-[(3-bromo-4-isopropoxy-phenyl)methylamino]-6-(2-furyl)pyrimidine-5-carbonitrile] registered an IC50 of 3.28 µM.

As for `CC1(C)CC(CNc2nc(N)nc(-c3ccco3)c2C#N)CC(C)(C)O1` [Example 3, 2-amino-4-(2-furyl)-6-[(2,2,6,6-tetramethyltetrahydropyran-4-yl)methylamino]pyrimidine-5-carbonitrile], the IC50 amounted to 1.67 µM.

With `N#Cc1c(NCC(F)Cc2ccccc2Cl)nc(N)nc1-c1ccco1` (stereo not drawn) [Example 4, 2-amino-4-[[3-(2-chlorophenyl)-2-fluoro-propyl]amino]-6-(2-furyl)pyrimidine-5-carbonitrile], the midpoint of inhibition, the IC50, lay at 11.4 µM.

As for `CC(Nc1nc(N)nc(-c2ccco2)c1C#N)c1cccc(C(F)(F)F)c1` (stereo not drawn) [Example 5, 2-amino-4-(2-furyl)-6-[1-[3-(trifluoromethyl)phenyl]ethylamino]pyrimidine-5-carbonitrile], it took 0.47 µM to reach half-maximal inhibition (IC50).

For the compound `COc1cccc(CN(C)c2nc(N)nc(-c3ccco3)c2C#N)c1` [Example 6], inhibition was half-maximal at 10.1 µM (IC50).

The compound `CS(=O)(=O)c1ccccc1C1(Nc2nc(N)nc(-c3ccco3)c2C#N)CC1` [Example 7, 2-amino-4-(2-furyl)-6-[[1-(2-methylsulfonylphenyl)cyclopropyl]amino]pyrimidine-5-carbonitrile] had an IC50 of 1.78 µM.

`N#Cc1c(NCC2CCC(F)(F)C2)nc(N)nc1-c1ccco1` (stereo not drawn) [Example 8, 2-amino-4-[(3,3-difluorocyclopentyl)methylamino]-6-(2-furyl)pyrimidine-5-carbonitrile] displayed an IC50 of 10.2 µM.

`N#Cc1c(NC2CCCC2)nc(N)nc1-c1ccco1` [Example 9, 2-amino-4-(cyclopentylamino)-6-(2-furyl)pyrimidine-5-carbonitrile] registered an IC50 of 8.68 µM.

With `N#Cc1c(NCC2CCCCC2)nc(N)nc1-c1ccco1` [Example 10, 2-amino-4-(cyclohexylmethylamino)-6-(2-furyl)pyrimidine-5-carbonitrile], half-maximal inhibition (IC50) required 3.62 µM.

In turn, `CSc1nc(NCc2cccc(C(F)(F)F)c2)c(C#N)c(-c2ccco2)n1` [Example 11, 4-(2-furyl)-2-methylsulfanyl-6-[[3-(trifluoromethyl)phenyl]methylamino]pyrimidine-5-carbonitrile] displayed an IC50 of 2.35 µM.

For `COCCNc1nc(NCc2cccc(C(F)(F)F)c2)c(C#N)c(-c2ccco2)n1` [Example 12, 4-(2-furyl)-2-(2-methoxyethylamino)-6-[[3-(trifluoromethyl)phenyl]methylamino]pyrimidine-5-carbonitrile], the IC50 turned out to be 3.89 µM.

For the compound `N#Cc1c(NCc2cccc(C(F)(F)F)c2)nc(NCC(F)(F)F)nc1-c1ccco1` [Example 13, 4-(2-furyl)-2-(2,2,2-trifluoroethylamino)-6-[[3-(trifluoromethyl)phenyl]methylamino]pyrimidine-5-carbonitrile], the 50% inhibitory concentration (IC50) was 3.93 µM.

`CCNc1nc(NCc2cccc(C(F)(F)F)c2)c(C#N)c(-c2ccco2)n1` [Example 14, 2-(ethylamino)-4-(2-furyl)-6-[[3-(trifluoromethyl)phenyl]methylamino]pyrimidine-5-carbonitrile] came in with a concentration for half-maximal inhibition (IC50) of 2.76 µM.

In turn, `CCCNc1nc(NCc2cccc(C(F)(F)F)c2)c(C#N)c(-c2ccco2)n1` [Example 15, 4-(2-furyl)-2-(propylamino)-6-[[3-(trifluoromethyl)phenyl]methylamino]pyrimidine-5-carbonitrile] came in with an IC50 of 3.01 µM.

In turn, `CN(C)c1nc(NCc2cccc(C(F)(F)F)c2)c(C#N)c(-c2ccco2)n1` [Example 16, 2-(dimethylamino)-4-(2-furyl)-6-[[3-(trifluoromethyl)phenyl]methylamino]pyrimidine-5-carbonitrile] had an IC50 of 6.75 µM.

For the compound `COc1nc(NCc2cccc(C(F)(F)F)c2)c(C#N)c(-c2ccco2)n1` [Example 17, 4-(2-furyl)-2-methoxy-6-[[3-(trifluoromethyl)phenyl]methylamino]pyrimidine-5-carbonitrile], inhibition was half-maximal at 3.35 µM (IC50).

The compound `CCOc1nc(NCc2cccc(C(F)(F)F)c2)c(C#N)c(-c2ccco2)n1` [Example 18, 2-ethoxy-4-(2-furyl)-6-[[3-(trifluoromethyl)phenyl]methylamino]pyrimidine-5-carbonitrile] showed an IC50 of 6.02 µM.

`CCCCOc1nc(NCc2cccc(C(F)(F)F)c2)c(C#N)c(-c2ccco2)n1` [Example 19, 2-butoxy-4-(2-furyl)-6-[[3-(trifluoromethyl)phenyl]methylamino]pyrimidine-5-carbonitrile] registered an IC50 of 2.42 µM.

On to `COc1ccc(Br)c(CNc2nc(C)nc(-c3ccco3)c2C#N)c1OC` [Example 20, 4-[(6-bromo-2,3-dimethoxy-phenyl)methylamino]-6-(2-furyl)-2-methyl-pyrimidine-5-carbonitrile], for which half-maximal inhibition (IC50) required 2.66 µM.

Turning to `Cc1nc(NCc2ccc(OC(C)C)c(Br)c2)c(C#N)c(-c2ccco2)n1` [Example 21, 4-[(3-bromo-4-isopropoxy-phenyl)methylamino]-6-(2-furyl)-2-methyl-pyrimidine-5-carbonitrile], the half-maximal inhibitory concentration (IC50) turned out to be 6.66 µM.

Consider `Cc1nc(NC2(c3ccccc3S(C)(=O)=O)CC2)c(C#N)c(-c2ccco2)n1` [Example 22, 4-(2-furyl)-2-methyl-6-[[1-(2-methylsulfonylphenyl)cyclopropyl]amino]pyrimidine-5-carbonitrile], for which the midpoint of inhibition, the IC50, lay at 2.73 µM.

`Cc1nc(NCc2ccccc2)c(C#N)c(-c2ccco2)n1` [Example 23, 4-(benzylamino)-6-(2-furyl)-2-methyl-pyrimidine-5-carbonitrile] registered an IC50 of 6.89 µM.

Regarding `N#Cc1c(NCc2ccccc2Cl)ncnc1-c1ccco1` [Example 24, 4-[(2-chlorophenyl)methylamino]-6-(2-furyl)pyrimidine-5-carbonitrile], it took 3.07 µM to reach half-maximal inhibition (IC50).

Consider `N#Cc1c(NCc2ccccc2)ncnc1-c1ccco1` [Example 25, 4-(benzylamino)-6-(2-furyl)pyrimidine-5-carbonitrile], for which the IC50 is 2.03 µM.

The compound `CC(C)CNc1ncnc(-c2ccco2)c1C#N` [Example 26, 4-(2-furyl)-6-(isobutylamino)pyrimidine-5-carbonitrile] gave an IC50 of 5.7 µM.

On to `N#Cc1c(NCC2CCCCC2)ncnc1-c1ccco1` [Example 27, 4-(cyclohexylmethylamino)-6-(2-furyl)pyrimidine-5-carbonitrile], for which the 50% inhibitory concentration (IC50) was 6.83 µM.

In the case of `N#Cc1c(NCCc2ccccc2)ncnc1-c1ccco1` [Example 28, 4-(2-furyl)-6-(2-phenylethylamino)pyrimidine-5-carbonitrile], the IC50 was 0.42 µM.

For `N#Cc1c(NCC2CCCC2)ncnc1-c1ccco1` [Example 29, 4-(cyclopentylmethylamino)-6-(2-furyl)pyrimidine-5-carbonitrile], the IC50 turned out to be 2.61 µM.

On to `N#Cc1c(NCC2(c3ccccc3)CCCC2)ncnc1-c1ccco1` [Example 30, 4-(2-furyl)-6-[(1-phenylcyclopentyl)methylamino]pyrimidine-5-carbonitrile], for which the IC50 was determined as 9.06 µM.
